In patent publication US11447454B2, “Synthesis of benzodiazepine derivatives” (Trio Medicines Limited, priority 2015, dated 2022):

Assays:
[1] = Solubility study in Britton-Robinson's buffer (HPLC-UV); format: physicochemical
Protocol: The test compound (2.5 mg of solid; n=1) was weighed in a clear glass vial and Britton-Robinson's buffer (0.5 mL) was added (pH 2.01, pH 3.06, pH 4.06, pH 5.08, pH 5.99, pH 6.98, and pH 8.16). The solution was agitated at ambient temperature overnight using a vial roller system, and then filtered (0.45 µm pore size; without pre-saturation). Two aliquots (50 μL) were sampled from the filtrate and diluted with one volume of 0.1 N hydrochloric acid and methanol (1:1 v/v) before analysis by HPLC-UV. A standard was prepared in DMSO at 10 mg/mL (n=1) which was then diluted 10-fold in 0.1 N hydrochloric acid and methanol (1:1 v/v) to give a 1 mg/mL solution. The concentration of test compound in the filtrate was quantified relative to the concentration standard.
Analysis was done using a gradient HPLC-UV system with a total cycle time of 6 min. The UV detection between 220 nm and 300 nm was done using a photodiode array detector. Total response was monitored.
The values given in the table above are for crystalline YF476 and (TR2-A) and amorphous (TR1).

[2] = Morphology studies (crystallisation attempts, XRPD); format: physicochemical
Source text: This is indicative of an advantage over YF476 in terms of the formulation of a suitable pharmaceutical composition. YF476 is crystalline, which contributes to poor solubility and bioavailability. Amorphous YF476 can be used to increase bioavailability, but requires stabilization, which can be achieved as a solid dispersion on hydroxypropyl methyl cellulose by spray-drying.

[3] = molecular target: T1, CCK1 (human) (Homo sapiens, UniProt P32238); assay: CCK1 receptor functional assay (antagonist effect, cAMP, HTRF); format: cell-based
T1 construct: expressed in transfected cells; host or cells: CHO cells
T1 sequence (P32238 1-428): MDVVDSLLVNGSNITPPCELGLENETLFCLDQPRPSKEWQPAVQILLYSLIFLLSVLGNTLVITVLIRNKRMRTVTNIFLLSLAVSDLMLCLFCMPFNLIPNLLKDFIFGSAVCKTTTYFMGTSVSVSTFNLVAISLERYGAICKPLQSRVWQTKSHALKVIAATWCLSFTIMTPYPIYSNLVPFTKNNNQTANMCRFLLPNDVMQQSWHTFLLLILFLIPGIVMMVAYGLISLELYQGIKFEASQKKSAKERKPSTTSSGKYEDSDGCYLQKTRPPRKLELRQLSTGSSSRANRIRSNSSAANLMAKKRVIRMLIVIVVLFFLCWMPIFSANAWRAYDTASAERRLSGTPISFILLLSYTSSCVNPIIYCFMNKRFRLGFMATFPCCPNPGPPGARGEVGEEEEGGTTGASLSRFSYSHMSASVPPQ
Source text: (§1) (TR2) and (TR3) were compared with YF476 and YM022 in CCK1 and CCK2 receptor functional assays with the following assay criteria.
(§2) The potency of the antagonists is expressed as IC50, the concentration of antagonist that causes a half-maximum inhibition of the control agonist response. The affinity of the antagonist for the receptor is expressed as KB, the concentration of antagonist, which would occupy 50% of the receptors at equilibrium.

[4] = molecular target: T2, CCK2 (human) (Homo sapiens, UniProt P32239); assay: CCK2 receptor functional assay (antagonist effect, cAMP, HTRF); format: cell-based
T2 construct: expressed in transfected cells; host or cells: CHO cells
T2 sequence (P32239 1-447): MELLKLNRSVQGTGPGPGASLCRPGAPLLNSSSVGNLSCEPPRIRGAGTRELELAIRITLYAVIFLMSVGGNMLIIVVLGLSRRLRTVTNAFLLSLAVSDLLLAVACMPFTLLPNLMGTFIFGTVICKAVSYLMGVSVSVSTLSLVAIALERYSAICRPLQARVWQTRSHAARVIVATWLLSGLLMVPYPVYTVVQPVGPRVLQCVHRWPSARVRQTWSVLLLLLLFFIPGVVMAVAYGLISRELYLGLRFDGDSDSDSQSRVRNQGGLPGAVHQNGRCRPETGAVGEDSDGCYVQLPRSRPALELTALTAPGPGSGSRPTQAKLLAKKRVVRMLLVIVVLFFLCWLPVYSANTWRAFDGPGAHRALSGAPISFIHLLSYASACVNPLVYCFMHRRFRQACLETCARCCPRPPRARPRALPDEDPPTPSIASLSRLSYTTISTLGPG
Source text: as §1
as §2, with “Furthermore, the selectivity of (TR2) for the CCK2 receptor over the CCK1 receptor was 30% higher than the selectivity of YF476. The potency” for “The potency”

[5] = test system: panel of 80 receptors; assay: Receptor binding screen, radiolabelled ligands; details: scintillation counting; other than CCK2 and CCK1
Protocol: The potential of (TR2) and (TR3) to bind to other cellular and nuclear receptors was tested in a panel of 80 receptors. The assay used radiolabelled receptor ligands (agonist or antagonist, depending on the receptor), and the ability of the test compounds to inhibit ligand binding was measured by scintillation counting.

[6] = test system: AGSGR cells; assay: Sulphorhodamine-B (SRB) proliferation assay; format: cell-based, human; details: G17 10 nM
Protocol: The potency of (TR2) and (TR3) was tested in a sulphorhodamine-B (SRB) proliferation assay in a human gastric adenocarcinoma cell line stably transfected with the human gastrin/CCK2 receptor gene (AGSGR). SRB is a fluorescent dye that binds to proteins, so cells with a high rate of protein synthesis (proliferative cells) will show high levels of fluorescence in the SRB assay. The gastrin fragment G17 has an anti-proliferative effect on AGSGR cells. So, when treated with G17, the cells show lower levels of fluorescence in the SRB assay. (TR2) and (TR3) were compared with the positive controls YF476 and YM022. […] None of the compounds tested affected AGSGR cell proliferation in the absence of G17.

[7] = Pharmacokinetics in healthy subjects; details: human, in vivo, po
Protocol: In an initial study, healthy volunteers took a single oral dose of 100 mg (TR2) as an active pharmaceutical ingredient (API) in a capsule. Plasma concentrations were measured.
In further clinical studies, healthy volunteers (n=8) took single oral doses of 5, 15, 50 and 100 mg (TR2) as an active pharmaceutical ingredient (API) in a capsule. Plasma concentrations were measured.
Healthy volunteers (n=8) took single oral doses of 5, 15, 25 and 50 mg (TR2-A) as API in a capsule (TR2-A (crystalline) in hard gelatin capsules with no excipient, no processing of the API). Plasma concentrations of (TR2) and (TR2-A) were measured. The area under the curve of plasma concentrations of (TR2) after a single oral dose of 50 mg of (TR2-A) API (AUC0-24 h=212.5) was about the same as that observed for a similar formulation of a single oral dose of (TR2) 100 mg (AUC0-24 h=241.5). […] Moreover, the plasma concentrations of (TR2-A) were low (AUC0-24 h<10), showing that (TR2-A) is acting as a prodrug for (TR2).

[8] = test system: increase in H+ concentration of gastric aspirate induced by pentagastrin; assay: Pharmacodynamic effect in healthy subjects (pentagastrin infusion); format: in vivo, human
Protocol: Pentagastrin induces gastric acid secretion, and thereby increases H^+ concentration.
In further clinical studies, in healthy volunteers, single oral doses of 5, 15, 50 and 100 mg of (TR2) or 5, 15, 25 and 50 mg (TR2-A) were administered in conjunction with pentagastrin infusion (i.v. dose 0.6 μg/kg/h for 2 h).
YF476 with pentagastrin infusion.

CNc1cccc(NC(=O)NC2N=C(c3ccccn3)c3ccccc3N(CC(=O)C(C)(C)CO)C2=O)c1 (racemic) [TR1]
aqueous solubility compared (in words) [1]: more soluble in aqueous solution than YF476 | preferred solid state [2]: prefer an amorphous state over a crystalline state

CNc1cccc(NC(=O)N[C@@H]2N=C(c3ccccn3)c3ccccc3N(CC(=O)C(C)(C)CO)C2=O)c1 [TR2, (R)-1-[1-(4-Hydroxy-3,3-dimethyl-2-oxo-butyl)-2-oxo-5-pyridin-2-yl-2,3-dihydro-1H-benzo[e][1,4]diazepin-3-yl]-3-(3-methylamino-phenyl)-urea]
CCK1 receptor antagonism (in words) [3]: less potent CCK1 receptor antagonists | CCK2 receptor antagonism (in words) [4]: potent CCK2 receptor antagonists | selectivity for the CCK2 receptor over the CCK1 receptor higher than the selectivity of YF476 [4]: 30% | less potent than YF476 and YM022 in the CCK2 assay ([4]; IC50 compared): about 5 fold | affinity for the CCK2 receptor lower than that of YF476 ([4]; KB compared): about 5 fold | affinity for the CCK2 receptor relative to YM022 ([4]; KB compared): twice | inhibition of ligand binding in panel of 80 receptors [5]: No significant receptor binding | inhibition of the anti-proliferative effects of G17 ([6]; compound 100 nM): completely inhibited | AUC relative to YF476 100 mg [7]: about twice | preferred solid state [2]: prefer an amorphous state over a crystalline state | solid state by XRPD analysis [2]: amorphous state

CNc1cccc(NC(=O)N[C@@H]2N=C(c3ccccn3)c3ccccc3N(CC(=O)C(C)(C)COC(C)=O)C2=O)c1 [TR2-A, (R)-1-[1-(4-Acetoxy-3,3-dimethyl-2-oxo-butyl)-2-oxo-5-pyridin-2-yl-2,3-dihydro-1H-benzo[e][1,4]diazepin-3-yl]-3-(3-methylamino-phenyl)-urea]
potency as a CCK2 receptor antagonist in healthy subjects (in words) [8]: greater than that of both (TR2) and YF476

CNc1cccc(NC(=O)N[C@H]2N=C(c3ccccn3)c3ccccc3N(CC(=O)C(C)(C)CO)C2=O)c1 [TR3]
CCK1 receptor antagonism (in words) [3]: less potent CCK1 receptor antagonists | CCK2 receptor antagonism (in words) [4]: potent CCK2 receptor antagonists | inhibition of ligand binding in panel of 80 receptors [5]: No significant receptor binding | inhibition of the anti-proliferative effects of G17 ([6]; compound 500 nM): had the same effect | preferred solid state [2]: prefer an amorphous state over a crystalline state

CNc1cccc(NC(=O)N[C@@H]2N=C(c3ccccn3)c3ccccc3N(CC(=O)C(C)(C)C)C2=O)c1 [YF476, reference compound]
inhibition of the anti-proliferative effects of G17 ([6]; compound 100 nM): completely inhibited

Cc1cccc(NC(=O)N[C@@H]2N=C(c3ccccc3)c3ccccc3N(CC(=O)c3ccccc3C)C2=O)c1 [YM022, reference compound]
inhibition of the anti-proliferative effects of G17 ([6]; compound 100 nM): completely inhibited
